According to PubChem BioAssay AID179 (DTP/NCI, 2004):
Calls of active or inactive are those of the source.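 How the source made its calls: active means compounds giving half or more protection of infected cells from virus-caused growth loss, again on retest; inactive means the rest.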

System: CEM cells HIV-1 protection, formazan growth assay
Assay: NCI AIDS Antiviral Assay
Settings: for IC50: measured here: growth of uninfected CEM cells
Outline: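 Soluble formazan readout of cell growth; CEM cells ± HIV-1; 5 drug concs. ≥50% protection → retest; ≥50% again = moderately active; reproducible 100% = confirmed active.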

| SMILES | EC50 | IC50 | outcome |
| --- | --- | --- | --- |
| O=C(Cc1csc(N=Nc2c(O)[nH]c3ccccc23)n1)Nc1ccccc1 | > 200 µM | 112 µM |  |
| O=C(CC1(O)C(=O)Nc2c(Cl)cc(Cl)cc21)c1cccc([N+](=O)[O-])c1 (stereo unspecified) | > 19.1 µM | > 19.1 µM |  |
| COC(=O)C[C@](O)(CCCC(C)(C)O)C(=O)O[C@@H]1C(OC)=C[C@]23CCCN2CCc2cc4c(cc2[C@H]13)OCO4 | > 2.29 µM | 0.0138 µM |  |
| CC(C)N1C(C)[C@@H](c2ccccc2)O[P@]1(=O)CC1=CCCCC1 (stereo partly specified) |  |  | inactive |
| COc1cc2c(cc1OC)C(CCl)c1cc(OC)c(OC)cc1C=C2 | > 100 µM | > 100 µM |  |
| C[Si]12OCCCN(CCO1)CCO2 |  |  | inactive |
| CSCCC(NC(c1ccccc1)c1ccccc1)[P+](=O)O (stereo unspecified) | > 200 µM | > 200 µM |  |
| CC(C)Cn1c(N)c(N=O)c(=O)n(C)c1=O | > 200 µM | > 200 µM |  |
| N#Cc1ccccc1NC(=O)C(=O)C(C(=O)c1ccccc1F)C1OC(=O)c2ccccc21 (stereo unspecified) | > 112 µM | 16.2 µM |  |
| C=C(CCC/C(C)=C/C=C/[C@]1(C)CCCc2ccoc21)CC(=O)O | 16.2 µM | > 200 µM |  |
| Cc1c(NC(=O)CCl)c(=O)oc2c(C)c3occc(=O)c3cc12 | > 40.7 µM | 0.204 µM |  |
| CNCCCNCCCSP(=O)(O)O | > 195 µM | 191 µM |  |
| CN(C)c1cc2c3c(c1)CCCN3CCC2 | > 200 µM | 11.5 µM |  |
| Cn1c(=O)c2c(nc(NCC[N+](C)(C)Cc3ccc(Cl)cc3)n2C)n(C)c1=O | > 295 µM | > 295 µM |  |
| O=C(/C=C/c1cccc(F)c1)c1ccccc1 | > 31.6 µM | 19.1 µM |  |
| O=C(O)c1cc2sc(C(=O)O)cc2s1 |  |  | inactive |
| Cc1c(O)c(OC2OC(CO)C(O)C(O)C2O)cc2c1C=C[C@@H]1[C@@]2(C)C(=O)C[C@]2(C)[C@@H]([C@@](C)(O)C(O)/C=C/C(C)(C)O)[C@H](O)C[C@@]12C (stereo partly specified) | > 200 µM | > 200 µM |  |
| N=C(N)SSC(=N)N | 70.8 µM | > 100 µM |  |
| CCN1C[C@]2(COC)CCC(O)C34[C@@H]5C[C@@H]6C(O)[C@@H]5[C@](O)(C[C@@H]6OC)[C@@](O)([C@H]13)[C@@H](OC)[C@@H]42 (stereo partly specified) |  |  | inactive |
| Cc1ccc(C)n1-n1c(-c2ccccc2)n[nH]c1=O | > 200 µM | 89.1 µM |  |
| COC(=O)C(Cc1ccc2c(c1)CCCC2)Cc1cc2c(cc1C(O)OC)CCC2 (stereo unspecified) | > 200 µM | 55 µM |  |
| O=C(c1ccc(Cl)cc1)c1ccc(OCCCOc2ccc(C(=O)c3ccc(Cl)cc3)cc2)cc1 | > 20 µM | > 20 µM |  |

| SMILES | EC50 | IC50 | outcome |
| --- | --- | --- | --- |
| c1cc(-c2ncc(-c3ccc4c(c3)CCCO4)o2)ccn1 | > 200 µM | 11.2 µM |  |
| O=C(Nc1ccc(/C=C/c2ccc(NC(=O)c3cc(S(=O)(=O)O)c4cccnc4c3O)cc2S(=O)(=O)O)c(S(=O)(=O)O)c1)Nc1ccc(/C=C/c2ccc(NC(=O)c3cc(S(=O)(=O)O)c4cccnc4c3O)cc2S(=O)(=O)O)c(S(=O)(=O)O)c1 | 5.5 µM | 50.1 µM |  |
| CCN(CC)c1c([N+](=O)[O-])c(=O)nc2ccccn12 | > 200 µM | 105 µM |  |
| CCCC/C=C(/C(O)[C@]1(C)OC(=O)N2CCC[C@H]21)[Si](C)(C)C (stereo partly specified) | > 759 µM | > 759 µM |  |
| COC(=O)[C@H]1[C@H]2C[C@@H]3c4[nH]c5cccc(OC)c5c4CCN3C[C@H]2CC[C@H]1O | > 200 µM | > 200 µM |  |
| COc1cc(-c2c(C)c(C)nc(OC)c2C#N)cc(OC)c1OC | 22.9 µM | > 100 µM |  |
| COc1cccc(C2SC(N)=Nc3c2c(C)nn3C(=O)c2ccccc2O)c1 (stereo unspecified) | > 2 µM | 0.17 µM |  |
| COc1cc(C2C=C(c3ccccc3)Oc3cc4c(cc32)OCO4)cc(OC)c1OC (stereo unspecified) | > 2 µM | 0.631 µM |  |
| N#C/C(=C\c1cccs1)c1ccccc1 | > 200 µM | 117 µM |  |
| COc1ccc(C(c2c(O)c3ccccc3oc2=O)N2CCOCC2)c(OC)c1 (stereo unspecified) | > 200 µM | 91.2 µM |  |
| CCCCCCCCCCNc1nc(F)nc(Nc2cc3ccc(OC)cc3oc2=O)n1 | > 39.8 µM | 7.08 µM |  |
| O=C(O)c1ccccc1/C=N/NC1=CS(=O)(=O)C=C1 |  |  | inactive |
| c1ccc(-c2nnc3nn4c(-c5ccccc5)cnnc4c3c2-c2ccccc2)cc1 | > 9.33 µM | > 9.33 µM |  |
| Cc1ccccc1NC(=O)NC(Oc1ccccc1)(C(F)(F)F)C(F)(F)F | > 200 µM | > 200 µM |  |
| S=C(/C=C1\SC(=Nc2ccccc2)C(=Nc2ccccc2)N1c1ccccc1)Nc1ccccc1 | > 200 µM | > 200 µM |  |
| N#CC12CC3=C(N=C1NC1=C(CCc4ccccc41)C2)c1ccccc1CC3 (stereo unspecified) | > 200 µM | 3.02 µM |  |
| Cc1cc2c(cc1C)C(=O)C1(C2)Cc2c(C)ccc(C)c2C1=O (stereo unspecified) | > 100 µM | > 100 µM |  |
| CC(C)C1OC2(C)OC(=N)C1(C#N)C(C#N)(C#N)C2C (stereo unspecified) | > 200 µM | 12 µM |  |
| COc1ccc(N=C/C=C/c2ccccc2)cc1 | > 21.9 µM | > 21.9 µM |  |
| O=C(Cc1ccccc1)N/N=C(/c1nc2ccc([N+](=O)[O-])cc2[nH]c1=O)C(O)c1ccc(C(O)/C(=N/NC(=O)Cc2ccccc2)c2nc3ccc([N+](=O)[O-])cc3[nH]c2=O)cc1 (stereo unspecified) | > 155 µM | 52.5 µM |  |
| O=C1CN(C2CCCCC2)CC(=O)N2C(c3ccccc3)CCCN12 (stereo unspecified) | > 200 µM | > 200 µM |  |
